Results on 13 molecules are retold here after patent US8771714B2, “Systems and methods for in vivo measurement of interstitial biological activity, processes and/or compositions” (MUSC Foundation for Research Development, priority 2006, dated 2014).

The target in test [1] is angiotensin receptor (Sus scrofa, UniProt P30555). Particulars: bolus of 1 mg/kg, infusion of 3 ng/kg/h; previously found; cited from earlier work.
For test [2], the system named is MMP-2/9 recombinant protein. Kind of test: MMP-1, 2, 3, 7, 9 substrate incubated with MMP-2/9 recombinant protein. The format is biochemical. The procedure:
Microdialysis: Microdialysis probes with a molecular weight cutoff of 20 kDa and an outer diameter of 0.5 mm were placed in the LV. The molecular weight cutoff of the microdialysis probe prevented any MMP species from traversing the membrane. A fluorogenic substrate specific for MMP-1, 2, 3, 7, and 9 (Calbiochem, La Jolla, Calif.) at a concentration of 60 ˜mol/L was stored in a 2.5 mL Bee Stinger® Gastight Syringe (Bioanalytical Systems, Inc) and infused at a rate of 5 ˜L/min through the 2 probes by the Baby Bee® Syringe Drive controlled by the MD-1020 Bee Hive Controller (Bioanalytical Systems, Inc). Fluorescence emitted via substrate cleavage deter-mined MMP activity. Substrate was allowed to equilibrate for 20 minutes before the beginning of the protocol. All tubing and syringes were protected from light. The specificity of this substrate was determined and performed as described for these fluorogenic substrates previously. […] With the addition of a broad spectrum MMP inhibitor (BB-94, 10 mmol/L, British Biotech), fluorescence emission was abolished.

In test [3] the test system is MMPs. Conditions: MMPs that cleave the substrate, commercially available substrates, cited from earlier work.
Test [4] relates to MMP-2/9. Put plainly: Specificity of MT1-MMP substrate: incubation with MMP-2/9. In kind it is biochemical. Conditions: MMP-2/9 500 ng/mL alone, 30 mM substrate. The procedure: (§1) In an additional set of experiments (FIG. 16), MT1-MMP catalytic domain (1000 ng/mL, BIOMOL, Plymouth Meeting, Pa.) was injected into a 96-well polystyrene plate (Nalge Nunc International, Rochester, N.Y.) with a 30 mM mixture of MT1-MMP substrate only or MT1-MMP substrate with MMP-2/9 (500 ng/mL, Chemicon; FIG. 16, top), MMP-8 (10 ng/mL, Calbiochem; FIG. 16, middle), or a disintegrin and metalloproteinase (ADAM)-10 and -17 cocktail (200 ng/mL, R&D Systems; FIG. 16, bottom).

In test [5] the target is T1, MT1-MMP (MMP-14) recombinant catalytic domain (Homo sapiens, UniProt P50281).
T1 construct: recombinant MT1-MMP catalytic domain (BIOMOL, Plymouth Meeting, Pa.); purchased BIOMOL, Plymouth Meeting, Pa
Put plainly: In vitro validation of MT1-MMP fluorogenic substrate with recombinant MT1-MMP catalytic domain. The format is biochemical. On the procedure:
Examples of fluorogenic substrate specificity for MMPs are shown below.
Specifically, MT1-MMP substrate (7.5 mM) was injected into a 96-well polystyrene plate (Nalge Nunc International, Rochester, N.Y.) with a 1.0 ng/mL concentration of recombinant MT1-MMP catalytic domain (BIOMOL, Plymouth Meeting, Pa.) and fluorescence emission was recorded. A rapid rise in activity, as measured by fluorescence emission, plateaued around 90 minutes. […] (FIG. 15, top). In addition, full length MT1-MMP (pretreated with 10 mM p-aminophenylmercuric acetate) was incubated for 1 hour at 37° C. with or without an antibody specific for the catalytic domain of MT1-MMP (1000 ng/mL, Chemicon AB8102). After the incubation period, the MT1-MMP substrate was injected and fluorescence emission recorded.
as §1

The target in test [6] is T2, MMP-8 (Homo sapiens, UniProt P22894).
T2 construct: purchased Calbiochem
Kind of test: Specificity of MT1-MMP substrate: incubation with MMP-8. The format is biochemical. Particulars: MMP-8 10 ng/mL alone, 30 mM substrate. The procedure:
as §1

The subject of test [7] is a disintegrin and metalloproteinase (ADAM)-10 and -17. Put plainly: Specificity of MT1-MMP substrate: incubation with ADAM-10 and -17 cocktail. In kind it is biochemical. Conditions: ADAM-10 and -17 cocktail 200 ng/mL alone, 30 mM substrate. The procedure: as §1
Test [8] concerns the target T3, MMP-14 (Homo sapiens, UniProt P50281).
T3 construct: from tissue; host or cells: human myocardium, crude homogenate
Put plainly: Ex-vivo MMP-14 activity in myocardial extracts. The format is biochemical. Further details: dose or concentration left out as unconfirmed. Conditions: BB94; FIG. 22. On the procedure:
A similar experiment was done utilizing the fluorogenic substrate specific for MT1-MMP (MMP-14). Substrate (MMP-14 Substrate I, Fluorogenic, Calbiochem) was diluted in the same reaction buffer and loaded into the FLUOstar® for automatic injection (10 μM). […] The reaction was allowed to proceed in which 200 recordings (398 minutes) were collected. This reaction using the MMP-14 specific substrate was linear with increasing concentrations of a recombinant MMP-14 catalytic domain ([…], Chemicon) (FIG. 20).

In test [9] the test system is MT1-MMP catalytic domain. Kind of test: Validation of LTBP-1 fluorogenic substrate with MT1-MMP catalytic domain. In kind it is biochemical. Conditions: 15 uM LTBP-1 substrate; 0007258 5 pM; BB94 1 uM; AB8102 1 mg/mL. An excerpt:
Previous studies have identified mutations within a similar type of domain in fibrillin-1, an LTBP-1 homologue, implicated in Marfan Syndrome (MFS). Furthermore, MFS has been associated with the over-stimulation of TGF-Beta signaling as a result of fibrillin-1 mutation. Using this unique sequence, a fluorogenic peptide was constructed and validated. This peptide sequence was synthesized in a caged fluorogenic construct (AnaSpec Inc, CA; newly assigned peptide name:SCJJ-1) with a certified HPLC purity of >98% FIG. 28. Using the incubation conditions and fluorescent equipment described in the previous section, and a specific excitation/emission wavelength (340/483 nm), 15 uM of LTBP-1 was exposed to increasing concentrations of the MT1-MMP catalytic domain FIG. 28.
Thus, an LTBP-1 peptide sequence constructed and validated that is specifically cleaved by MT1-MMP.

Test [10] concerns MMP-1, 2, 3, 7, 9. Kind of test: Ex-vivo MMP-1, 2, 3, 7, 9 activity in myocardial extracts. The format is biochemical, human. Further details: dose or concentration left out as unconfirmed. Particulars: BB94; FIG. 18. The procedure: In addition, these substrates were used to examine MMP activity ex-vivo using myocardial samples from both human and animal specimens. The frozen myocardial tissue was submerged in 2 mL of ice-cold buffer (Cacodylic Acid, NaCl, ZnCl2, CaCl2, NaN3, 0.08% Triton X), homogenized, and spun at 8,000 G for 10 minutes at 4C. The supernatant was then measured, tested for protein concentration, aliquoted, and stored at −70° C. Final protein concentrations were diluted in a reaction buffer containing (0.05% Brij, 50 mM Tris-HCl, 0.2 M NaCl, 10 mM CaCl2, […]) and the samples were loaded onto a 96-well microplate (FluoroNunc® 96-Well Polystyrene Plates) and placed in a 37° C. temperature controlled unit allowing for continuous fluorescence measurements (FLUOstar® Galaxy, BMG Labtechnologies). Substrate (MMP Substrate, Fluorogenic, Calbiochem) was diluted in the same reaction buffer and loaded into the FLUOstar® for automatic injection (12 mM). […] Excitation was set to (280 nm) and emission was set to (360 nm) and readings were taken every 2 minutes following the addition of the substrate. The reaction was allowed to proceed to 200 recordings (398 minutes). This reaction using the MMP-1, 2, 3, 7, 9 specific substrate was linear with increasing concentrations.

Test [11] concerns MMP-2 and MMP-9. Further details: species or system pigs. Conditions: pig, in vivo.
Method: Myocardial Infarction: Mature pigs (n 5 20, Yorkshire, 35-40 kg, Hambone Farms) were instrumented to obtain indexes of LV global and regional function as well as for the measurement of myocardial interstitial MMPs. […] A loading dose of 50 mg sufentanil (Elkins-Sinn) was then administered, and a maintenance infusion of lactated Ringer solution (400 ml/h) and morphine 60 mg/h, Elkins-Sinn) was initiated. A continuous infusion of tubocurarine (3 mg/h, Bristol-Myers-Squibb) and lidocaine (120 mg/h, Elkins-Sinn) was established. In preliminary studies, this anesthetic protocol provided a deep anesthetic plane and stable hemodynamic profiles for at least 8 hours.
In a second set of studies, interstitial myocardial MMP activity was directly quantified using a MMP fluorogenic substrate. For these studies, microdialysis probes containing a 20-kDa molecular mass cutoff (CMA/20, CMA/Microdialysis) membrane were placed within the mid-myocardium. This molecular mass cutoff effectively excluded MMP species from directly traversing from the interstitial space into the microdialysis membrane. […] The samples were read using excitation and emission wavelengths of 280 and 360 nm, respectively (Gilford Fluoro IV; Oberlin, Ohio). […]
Test [12] deals with purified MMP-2/9. Put plainly: In vitro microdialysis of MMP substrate in immersion solution with purified MMP-2/9. In kind it is biochemical. Conditions: infused at 2.5 ml/min, purified MMP-2/9, 37° C.

Read-outs that look alike come from different tables or passages of the source. Square brackets hold non-standard residues; d marks the D form. * marks the point of attachment. Dpa = 3-(2,4-dinitrophenyl)-L-2,3-diaminopropionyl; Dnp = O=[N+]([O-])c1ccc(*)c([N+](=O)[O-])c1; Mca = COc1ccc2c(CC(=O)*)cc(=O)oc2c1; Cha = N[C@@H](CC1CCCCC1)C(=O)O; Nva = CCC[C@H](N)C(=O)O; Mob = COc1ccc(C*)cc1 A value given as a limit tells only on which side of the number the result lay.

T2 sequence (P22894 101-467, species assumed): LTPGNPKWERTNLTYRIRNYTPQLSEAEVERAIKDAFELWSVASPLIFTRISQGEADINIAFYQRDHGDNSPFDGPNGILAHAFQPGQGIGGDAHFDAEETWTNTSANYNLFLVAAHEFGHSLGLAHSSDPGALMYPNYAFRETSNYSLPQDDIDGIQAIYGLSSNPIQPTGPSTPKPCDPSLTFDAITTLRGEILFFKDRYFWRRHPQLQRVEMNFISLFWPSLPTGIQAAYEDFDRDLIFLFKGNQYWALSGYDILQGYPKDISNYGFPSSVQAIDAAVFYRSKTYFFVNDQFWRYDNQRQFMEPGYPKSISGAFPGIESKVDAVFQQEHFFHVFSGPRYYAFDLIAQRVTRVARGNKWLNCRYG
Sequence of angiotensin receptor (P30555 whole entry, the tested form may be a part): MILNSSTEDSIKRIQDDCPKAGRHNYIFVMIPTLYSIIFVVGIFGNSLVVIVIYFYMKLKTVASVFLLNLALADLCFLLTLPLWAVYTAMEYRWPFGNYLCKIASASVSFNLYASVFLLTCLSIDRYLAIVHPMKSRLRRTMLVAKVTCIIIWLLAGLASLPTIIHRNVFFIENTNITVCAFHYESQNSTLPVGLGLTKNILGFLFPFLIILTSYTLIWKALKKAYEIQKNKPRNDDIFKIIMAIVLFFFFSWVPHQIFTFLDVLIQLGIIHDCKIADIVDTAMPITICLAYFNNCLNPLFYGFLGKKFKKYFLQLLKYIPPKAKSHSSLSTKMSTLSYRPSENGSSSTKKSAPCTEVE

Take `CCCCC(=O)N(Cc1ccc(-c2ccccc2-c2nnn[nH]2)cc1)[C@H](C(=O)O)C(C)C` [Valsartan]: the “effect on angiotensin pressor response” value in test [1] is reported as “inhibited the angiotensin pressor response”.

Regarding “DNP-Pro-Leu-Gly-Leu-Trp-Ala-D-Arg-NH2 (Dnp-PLGLWA[dR]-NH2; SMILES CC(C)C[C@H](NC(=O)CNC(=O)[C@H](CC(C)C)NC(=O)[C@@H]1CCCN1c1ccc([N+](=O)[O-])cc1[N+](=O)[O-])C(=O)N[C@@H](Cc1c[nH]c2ccccc12)C(=O)N[C@@H](C)C(=O)N[C@H](CCCNC(=N)N)C(N)=O) [SEQ ID NO: 1]”, the “time to steady-state fluorescence emission” value in [2] (MMP-2/9 recombinant protein 500 ng/mL) is not above 60 min. The Specificity result in test [3] was “MMP-1,2,3,7,9”; in [3] (listed as SEQ ID NO:1), “cleaved selectively by MMPs 1, 2, 3, 7, 9”.

In the case of “DABCYL-GABA-Arg-Pro-Lys-Pro-Val-Glu-Nva-Trp-Arg-Glu(EDANS)-Ala-Lys-NH2 [SEQ ID NO: 2]”, the Specificity entry in test [3] was “MMP-3,5,9,13”.

For “DNP-Pro-Leu-Ala-Tyr-Trp-Ala-Arg-OH (Dnp-PLAYWAR-OH; SMILES CC(C)C[C@H](NC(=O)[C@@H]1CCCN1c1ccc([N+](=O)[O-])cc1[N+](=O)[O-])C(=O)N[C@@H](C)C(=O)N[C@@H](Cc1ccc(O)cc1)C(=O)N[C@@H](Cc1c[nH]c2ccccc12)C(=O)N[C@@H](C)C(=O)N[C@@H](CCCNC(=N)N)C(=O)O) [SEQ ID NO: 6]”, the Specificity result in test [3] is on record as “MMP-8”.

With “DNP-Arg-Pro-Leu-Ala-Leu-Trp-Arg-Ser-OH (Dnp-RPLALWRS-OH; SMILES CC(C)C[C@H](NC(=O)[C@H](C)NC(=O)[C@H](CC(C)C)NC(=O)[C@@H]1CCCN1C(=O)[C@H](CCCNC(=N)N)Nc1ccc([N+](=O)[O-])cc1[N+](=O)[O-])C(=O)N[C@@H](Cc1c[nH]c2ccccc12)C(=O)N[C@@H](CCCNC(=N)N)C(=O)N[C@@H](CO)C(=O)O) [SEQ ID NO: 5]”, the Specificity result in test [3] was “MMP-7”.

Take “DNP-Pro-Tyr-Ala-Tyr-Trp-Met-Arg-OH (Dnp-PYAYWMR-OH; SMILES CSCC[C@H](NC(=O)[C@H](Cc1c[nH]c2ccccc12)NC(=O)[C@H](Cc1ccc(O)cc1)NC(=O)[C@H](C)NC(=O)[C@H](Cc1ccc(O)cc1)NC(=O)[C@@H]1CCCN1c1ccc([N+](=O)[O-])cc1[N+](=O)[O-])C(=O)N[C@@H](CCCNC(=N)N)C(=O)O) [SEQ ID NO: 4]”: the Specificity result in test [3] is “MMP-3”.

As for “MCA-Pro-Cha-Gly-Nva-His-Ala-Dpa-NH2 (Mca-P[Cha]G[Nva]HA-{Dpa-NH2}) [SEQ ID NO: 7]”, in test [3], the Specificity entry is recorded as “MMP-13”.

Take “MCA-Pro-Leu-Ala-Cys(p-OMeBz)-Trp-Ala-Arg(Dpa)-NH2 (Mca-PLAC(Mob)WAR(Dpa)-NH2) [SEQ ID NO: 8]”: the “fluorescence emission from the substrate” value in test [4] is “failed to cause fluorescence emission”; in [5] (injection of MT1-MMP catalytic domain 1000 ng/mL, in all protease cocktails), “rapid rise in fluorescence emission”; in test [6], “failed to cause fluorescence emission”; in test [7], “failed to cause fluorescence emission”. Besides, in test [5] (substrate 7.5 mM, 1.0 ng/mL recombinant MT1-MMP catalytic domain), the “time at which fluorescence emission plateaued” value is recorded as “around 90 minutes”. Also, the Specificity entry in test [3] is listed as “MMP-14”; in test [3] (listed as SEQ ID NO:8), “cleaved selectively by MMP-14”.

On to `CNC(=O)[C@H](Cc1ccccc1)NC(=O)[C@H](CC(C)C)[C@H](CSc1cccs1)C(=O)NO` [BB94], for which the “fluorescence emission with addition of inhibitor” value in [2] (BB-94, MMP-2/9 500 ng/mL) was “abolished”. Moreover, the “inhibition of MMP-14 substrate reaction” value in test [8] is on record as “significantly inhibited”. Besides, the “fluorescent activity on co-incubation” value in test [9] is “extinguished all fluorescent activity”. Also, the “fluorescence emission with addition of BB94” value in test [5] (MT1-MMP recombinant catalytic domain, FIG. 13) is “abolishment of fluorescence emission”. Further, the “inhibition of MMP-1, 2, 3, 7, 9 substrate reaction” value in test [10] is “significantly inhibited”.

As to `CNC(=O)[C@H](Cc1c[nH]c2ccccc12)NC(=O)[C@@H](CC(=O)NO)CC(C)C` [galardin], the “fluorescent activity in interstitial microdialysate samples on coinfusion with MMP substrate” value in test [11] is reported as “abolished all fluorescent activity”.

Turning to “DNP-Pro-Leu-Ala-Leu-Trp-Arg-OH (Dnp-PLALWR-OH; SMILES CC(C)C[C@H](NC(=O)[C@H](C)NC(=O)[C@H](CC(C)C)NC(=O)[C@@H]1CCCN1c1ccc([N+](=O)[O-])cc1[N+](=O)[O-])C(=O)N[C@@H](Cc1c[nH]c2ccccc12)C(=O)N[C@@H](CCCNC(=N)N)C(=O)O) [SEQ ID NO: 3]”, the Specificity result in test [3] was “MMP-1”.

“DNP-Pro-Leu-Gly-Met-Trp-Ser-Arg-OH (Dnp-PLGMWSR-OH; SMILES CSCC[C@H](NC(=O)CNC(=O)[C@H](CC(C)C)NC(=O)[C@@H]1CCCN1c1ccc([N+](=O)[O-])cc1[N+](=O)[O-])C(=O)N[C@@H](Cc1c[nH]c2ccccc12)C(=O)N[C@@H](CO)C(=O)N[C@@H](CCCNC(=N)N)C(=O)O) [SEQ ID NO: 9]”: in [3], the Specificity entry is “MMP-2,9”.

In the case of Dnp-PLGLGMWSR-OH, the “time at which relative fluorescence plateaued” value in test [12] was not above 60 min.
